≈ marks a conversion by molar mass, not a printed value. A value given as a limit tells only on which side of the number the result lay.

For orientation: kinetic solubility means the concentration staying in solution when a stock, usually in DMSO, is diluted into the medium.

The conditions of this data set: buffer; pH 7.4; 200.0 µM.
As to `CCCC(=O)Nc1ccc2oc(=O)ccc2c1`, the kinetic solubility is > 34.7 µg/mL. Regarding `Nc1cccc(-c2nc3ncccc3o2)c1`, the solubility (kinetic) is > 31.7 µg/mL.

On to `COc1ccc(NC(=O)CC(C(=O)O)C(C)c2ccccc2)cc1` (centres undefined), for which the solubility (kinetic) was > 49.1 µg/mL. In turn, `N=c1oc2ccccc2cc1C(=O)NCc1ccccc1` returned a solubility (kinetic) of 6.7 µg/mL (≈ 24.1 µM). Under `Cc1cccc(NC(=O)CSCC(=O)NCc2ccco2)c1` stands > 47.8 µg/mL; under `CC(C)n1cc(NC(=O)COc2ccccc2Cl)cn1`, > 44.1 µg/mL. On to `Cc1[nH]c2ccc(C(=O)N3CCN(Cc4ccccc4)CC3)cc2c1C`, for which the kinetic solubility was > 52.1 µg/mL. Compound `COc1ccc2nc(NC(=O)c3ccccc3[N+](=O)[O-])sc2c1` displayed a kinetic solubility of 3 µg/mL (≈ 9.11 µM). Regarding `Nc1ccc(S(=O)(=O)[O-])cn1.[Na+]`, the kinetic solubility is > 29.4 µg/mL. In the case of `[Br-].c1ccc(-c2c[n+]3c(n2-c2ccccc2)CCC3)cc1`, the kinetic solubility is > 51.2 µg/mL. For the compound `CCOc1ccc(NC(=O)c2cc3ccccc3cc2OC)cc1`, the solubility (kinetic) is < 0.7 µg/mL. In turn, `COc1ccccc1N1CCN(c2nccc(C)n2)CC1` yielded a kinetic solubility of 40.3 µg/mL (≈ 142 µM).

For `Cc1ccc(NC(=O)NCCN2CCCCC2)cc1C`, the solubility (kinetic) was determined as 37.4 µg/mL (≈ 136 µM). In the case of `Cc1nc(SCC(=O)N2CCCCCC2)[nH]c(=O)c1C`, the solubility (kinetic) is > 44.3 µg/mL.

`CCN(CC)c1ccc(Nc2nc(-c3cccnc3)cs2)cc1`: the kinetic solubility is < 0.2 µg/mL. `CC(=O)c1ccc(N(CC(=O)NC2CCS(=O)(=O)C2)S(=O)(=O)c2ccc(C)cc2)cc1` (centres undefined) came in with a solubility (kinetic) of 10.4 µg/mL (≈ 22.4 µM). In turn, `O=S(=O)(c1cnc(Cl)c(Cl)c1)N1CCN(c2ncccn2)CC1` displayed a solubility (kinetic) of 0.4 µg/mL (≈ 1.07 µM). Under `CCc1ccc(C(C)NC(=O)c2ccc3c(c2)OCO3)cc1` (centres undefined) stands 1.6 µg/mL (≈ 5.38 µM); under `C/C(=C/c1ccccc1)C(=O)N1CCN(c2ccc(F)cc2)CC1`, 36.1 µg/mL (≈ 111 µM); under `Cc1cc(Cl)ccc1NC(=O)CN1C(=O)NC2(CCCC2)C1=O`, > 50.4 µg/mL. `COc1ccc(-c2cc(C(=O)NN3CCOCC3)c3ccccc3n2)cc1OC`: the kinetic solubility is > 59 µg/mL. `Cc1ccccc1C(=O)OCc1cnc(Cl)s1` had a solubility (kinetic) of 1.4 µg/mL (≈ 5.23 µM).

`O=S(=O)(c1ccc(=S)[nH]c1)N1CCCC1`: the solubility (kinetic) was > 36.6 µg/mL. The compound `O=C(Nc1cccc2ccccc12)C1CCCC1` registered a kinetic solubility of 12.2 µg/mL (≈ 51 µM). Consider `CC(C)C(=O)Nc1ccc2c(c1)nc(CCN1CCCCC1)n2C`, for which the kinetic solubility is > 49.3 µg/mL. `CC(C)(C)c1csc(NC(=O)c2ccc(Br)o2)n1`: the solubility (kinetic) was 16 µg/mL (≈ 48.6 µM). In turn, `CCN(CCS(=O)(=O)c1ccc(Br)cc1)Cc1nc2ccccc2c(=O)[nH]1` showed a solubility (kinetic) of 9.3 µg/mL (≈ 20.7 µM). Compound `Cc1c([N+](=O)[O-])cc(C(=O)Nc2ccc3ncccc3c2)cc1[N+](=O)[O-]` displayed a kinetic solubility of 0.5 µg/mL (≈ 1.42 µM). On to `O=C(O)c1ccc(N2C(=O)c3cccc4cccc(c34)C2=O)cc1`, for which the solubility (kinetic) is > 47.6 µg/mL. `COc1ccccc1C1CCN(c2ccc([N+](=O)[O-])cn2)CC1`: the solubility (kinetic) was < 0.2 µg/mL. `Cc1[nH]c2ccccc2c1C(=O)COC(=O)c1ccc[n+]([O-])c1` registered a solubility (kinetic) of 39.7 µg/mL (≈ 128 µM). The figure for `Cc1ccc(S(=O)(=O)NCC(=O)OCc2ccccc2)cc1` is 40.3 µg/mL (≈ 126 µM). `COc1ccc(-c2csc3ncnc(Cl)c23)cc1` gave a kinetic solubility of 0.6 µg/mL (≈ 2.17 µM). Compound `c1ccc(CNc2ncnc3scc(-c4cccs4)c23)nc1` displayed a solubility (kinetic) of 37.2 µg/mL (≈ 115 µM). For `CCc1cccc(NC(=O)CC2Oc3ccccc3NC2=O)c1` (centres undefined), the solubility (kinetic) came to 2.4 µg/mL (≈ 7.73 µM). The figure for `CC(=O)c1c(C)n(-c2ccccc2Br)c2ccc(O)cc12` is 1 µg/mL (≈ 2.91 µM); for `O=[N+]([O-])C(=C1NCCN1)C(Cl)=C(Cl)Cl` it is > 38.8 µg/mL. On to `Nc1c(C(=O)Nc2ccccc2)sc2ncc([N+](=O)[O-])cc12`, for which the kinetic solubility was < 0.2 µg/mL. Turning to `Cc1ccc(NC(=O)CCN2CCC(C)CC2)cc1.Cl`, the kinetic solubility was > 44.5 µg/mL. On to `COc1cc2c(cc1OC)/C(=C/C(=O)c1ccccc1F)NCC2`, for which the solubility (kinetic) was found to be 40.4 µg/mL (≈ 123 µM). Under `Cc1cc(NS(=O)(=O)c2ccc(NC(=O)c3ccccc3F)cc2)no1` stands > 56.3 µg/mL.

For the compound `COc1cc(C2Nc3cccc4cccc(c34)N2)ccc1O`, the kinetic solubility is 35.5 µg/mL (≈ 121 µM). Turning to `Cc1cc(NC(=O)CSCC(=O)OCc2nnc(-c3ccc(F)cc3)o2)no1`, the solubility (kinetic) is > 61 µg/mL.

In turn, `CCc1nonc1NC(=O)c1oc2ccccc2c1C` gave a solubility (kinetic) of 3.1 µg/mL (≈ 11.4 µM). `CCN1CCN(c2ccc(S(=O)(=O)N3CCCC3)cn2)CC1` gave a solubility (kinetic) of 34.6 µg/mL (≈ 107 µM). As for `O=C(NCc1ccc2c(c1)OCO2)c1cc([N+](=O)[O-])ccc1N1CCOCC1`, the kinetic solubility is > 57.8 µg/mL. For the compound `COc1ccc(C2C(CN3CCOCC3)C(=O)N2c2ccccc2)cc1` (centres undefined), the solubility (kinetic) is > 52.9 µg/mL. `O=C(CCC(=O)c1cccs1)NCc1ccccc1Cl` had a kinetic solubility of 45.4 µg/mL (≈ 147 µM).

Take `O=C(Nc1cccc(F)c1)NC1CCCCCCC1`: the kinetic solubility was 9 µg/mL (≈ 34 µM). Under `Cc1ccc(OCCNS(=O)(=O)c2ccc(Cl)cc2)cc1` stands 5.6 µg/mL (≈ 17.2 µM); under `O=C(NCc1ccco1)c1ccc(Cn2c(=S)[nH]c3ccccc3c2=O)cc1`, 0.4 µg/mL (≈ 1.02 µM); under `CCOC(=O)C1=C(COC(=O)/C=C/c2cccc(F)c2)NC(=O)NC1C` (centres undefined), 4.6 µg/mL (≈ 12.7 µM). Regarding `CN(C)c1ccc(Nc2ccc([N+](=O)[O-])cn2)cc1`, the kinetic solubility was 1 µg/mL (≈ 3.87 µM). `CC(C)c1ccc(OCC(=O)N2CCc3ccccc3C2)cc1` showed a solubility (kinetic) of 9 µg/mL (≈ 29.1 µM). Regarding `N#C/C(=C\c1ccc[nH]1)C(=O)Nc1ccccc1Cl`, the kinetic solubility was < 0.2 µg/mL. `Fc1ccc(Oc2nc(-c3ccccn3)nc3ccccc23)cc1` had a kinetic solubility of 17.3 µg/mL (≈ 54.5 µM). With `Cc1ccc(C(=O)N2c3ccccc3CC2C)o1` (centres undefined), the kinetic solubility was 31.6 µg/mL (≈ 131 µM). On to `CC(CNS(=O)(=O)c1ccc(Br)cc1)CN(C)C` (centres undefined), for which the solubility (kinetic) is > 50.3 µg/mL. In turn, `Cn1c(/C=C/c2ccccc2)nc2ccccc21` yielded a solubility (kinetic) of 21.9 µg/mL (≈ 93.5 µM).

`CCSc1nc2cc(S(=O)(=O)N3CCOCC3)ccc2o1`: the kinetic solubility was > 49.3 µg/mL. In turn, `COc1ccc(CN2CCSCC2)c(OC)c1C` displayed a solubility (kinetic) of 26.4 µg/mL (≈ 98.7 µM). In turn, `CCOP(=O)(OCC)C(Cc1ccccc1)NC(C)=O` (centres undefined) registered a solubility (kinetic) of 43.5 µg/mL (≈ 145 µM).

The compound `Cn1c(/C=C/c2cccc([N+](=O)[O-])c2)c([N+](=O)[O-])c(=O)n(C)c1=O` came in with a kinetic solubility of 48.6 µg/mL (≈ 146 µM). Take `c1ccc(SSc2ccccn2)nc1`: the kinetic solubility turned out to be 25.5 µg/mL (≈ 116 µM).

As for `COc1ccc(/C=C2/NC(=O)CNC2=O)cc1`, the kinetic solubility is > 34.8 µg/mL.

Compound `COc1ccccc1CNC(=O)COC(=O)Cc1ccc(Br)cc1` displayed a solubility (kinetic) of 13.7 µg/mL (≈ 34.9 µM). Under `COc1cccc(OC)c1C(=O)OCC(=O)NCc1ccco1` stands > 47.9 µg/mL; under `CN(C)c1ccc(C(=O)N2CCNC(=O)C2CC(=O)Nc2ccc(F)cc2)cc1` (centres undefined), 55.1 µg/mL (≈ 138 µM); under `O=C(CSCc1c(F)cccc1Cl)NCCc1ccccc1`, 40.2 µg/mL (≈ 119 µM). As for `Cc1ccc(C(=O)Nc2ccc(N3CCN(C)CC3)cc2)cc1`, the kinetic solubility is > 46.4 µg/mL. `O=C1C2CCCCN2C(=O)N1CCCN1CCN(c2ccc(F)cc2)CC1` (centres undefined) had a kinetic solubility of 48.1 µg/mL (≈ 128 µM).

Regarding `CN1CCN(CC(=O)NC(=O)NC2CCCCC2)CC1`, the kinetic solubility is > 42.4 µg/mL. Under `O=C(NC(=S)NC1CCCCC1)c1ccccc1` stands 8.5 µg/mL (≈ 32.4 µM); under `COc1cccc(NC(=O)C2C(c3ccccc3)C2(Cl)Cl)c1` (centres undefined), 7 µg/mL (≈ 20.8 µM).

These data come from PubChem BioAssay AID1996.
